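Assay format: 96-well plates, 48-hour exposure. GI50 is the concentration that inhibits growth by half. TGI: total growth inhibition.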
Key:
Assay in all cases: growth of human tumour cells (NCI), 48 h
HCT-116 colon = system: HCT-116 colon
NCI-H23 lung = system: NCI-H23 lung
SK-MEL-5 melanoma = system: SK-MEL-5 melanoma
OVCAR-4 ovarian = system: OVCAR-4 ovarian
HCC-2998 colon = system: HCC-2998 colon
K-562 leukemia = system: K-562 leukemia
BT-549 breast = system: BT-549 breast
SK-MEL-2 melanoma = system: SK-MEL-2 melanoma
NCI-H460 lung = system: NCI-H460 lung
SK-MEL-28 melanoma = system: SK-MEL-28 melanoma
OVCAR-3 ovarian = system: OVCAR-3 ovarian

| Structure (SMILES) | TGI (HCT-116 colon) | TGI (NCI-H23 lung) | TGI (SK-MEL-5 melanoma) | TGI (OVCAR-4 ovarian) | TGI (HCC-2998 colon) | TGI (K-562 leukemia) | TGI (BT-549 breast) | TGI (SK-MEL-2 melanoma) | TGI (NCI-H460 lung) | TGI (SK-MEL-28 melanoma) | TGI (OVCAR-3 ovarian) | GI50 (NCI-H23 lung) | GI50 (K-562 leukemia) | GI50 (SK-MEL-2 melanoma) |
| --- | --- | --- | --- | --- | --- | --- | --- | --- | --- | --- | --- | --- | --- | --- |
| NC(CC(O)(c1ccccc1)c1ccccc1)c1ccccc1S (stereo not drawn) | 26.2 µM | 37.7 µM | 25.6 µM | 29.7 µM | 50 µM | 37.2 µM | 27.8 µM | 33.2 µM | 38.3 µM | 31.5 µM | 29.5 µM |  |  |  |
| CC1=CCC[C@H]2[C@](C)(CC3=CC(=O)C(Sc4ccccc4)=CC3=O)[C@@H](C)CC[C@]12C | 30.3 µM | 28.2 µM | 30.9 µM | 43.7 µM | 41 µM | 41.2 µM | 34.1 µM | 56.1 µM | 42.9 µM | 35.7 µM | 31.4 µM | 14.7 µM | 19.5 µM | 19.9 µM |
| COc1ccc(C2SCC(=O)N2NC(=O)C(C)Oc2ccccc2C)cc1 (stereo not drawn) | > 100 µM | > 100 µM | > 100 µM | > 100 µM | > 100 µM | > 100 µM | > 100 µM | > 100 µM | > 100 µM | > 100 µM | > 100 µM |  |  |  |
| NC(=Nc1ccccc1)c1ccccc1N | > 100 µM | > 100 µM | > 100 µM | > 100 µM | > 100 µM | > 100 µM | > 100 µM | > 100 µM | > 100 µM | 64.4 µM | > 100 µM |  |  |  |
| O=[N+]([O-])c1ccc(O)c(/C=N/c2nc(-c3ccccc3)cs2)c1 | 80.9 µM | 49.6 µM | 34.4 µM | > 100 µM | > 61.4 µM | 41.9 µM | 46.4 µM | 70.5 µM | > 86.7 µM | > 100 µM | > 100 µM |  |  |  |
